# According to patent US11925653B2, “Combination therapy effective against microorganisms, including drug resistant microorganisms” (Fleurir ABX LLC, priority 2021, dated 2024):
# Marks after values point to notes of the source that are not given here.
# Test system: Staphylococcus aureus
# Assay: MIC and synergy checkerboard assay, broth microdilution
# Assay type: cell-based
# Experimental: The described novel combination was tested against both reference, and clinically resistant strains of S. aureus, E, coli, K. pneumoniae, and P. aeruginosa. Reference and clinical isolates were obtained from the American Type Culture Collection (ATCC, Manasas, VA.) and International Health Management Associates, Inc. (Schaumberg, IL). Bacteria were cultured in trypticase soy broth, concentrated 10-fold by centrifugation, and cryopreserved in the same medium containing 20% glycerol by holding at −80° C. Every two weeks a small amount of frozen culture was removed aseptically, and streaked on fresh trypticase soy agar plates to act as a working inoculum. Following overnight growth at about 37° C., the plates were wrapped in parafilm, and held at about 4° C. Bacteria (4-5 colonies) were then aseptically transferred into broth growth medium for assays as needed.
# Minimum inhibitory concentration (MIC) assays were performed in a manner as described for the CLSI Agar dilution or broth microdilution assay guideline (see, Clinical Laboratory Standards Institute, 2009, Methods for Dilution Antimicrobial Susceptibility Tests for Bacteria That Grow Aerobically; Approved Standard, Eighth Edition, M07-A8, Vol. 29, No. 2). For example, known antibiotics or the compositions described herein were dissolved, serially diluted, and then added to tempered molten Mueller-Hinton Agar before pouring of plates; or were dissolved, and then serially diluted in 100 μL cation-adjusted Mueller-Hinton broth across the assay plate in the classical 2-fold geometric format. D-glucose-6-phosphate was included as a medium supplement in both agar, and broth at a concentration of 50 mg/L. Antibiotic concentrations for agar assay were at the final concentration. Antibiotic concentrations for broth microdilution in each well at this point were double what the final assay concentration would be. Bacterial inocula were prepared by swabbing several colonies from a fresh agar plate, and re-suspending the bacteria to a density that was the 0.5 McFarland turbidity standard, considered close or equivalent to 1×10^8 CFU/mL. For agar dilution, a steers replicator was utilized to deliver 1×10^4 CFU/spot. For broth microdilution, the bacterial inocula were diluted in the cation-adjusted Mueller-Hinton broth to 1×10^6 CFU/mL, and 100 μL was overlayered onto the wells containing a diluted antibiotic or a composition described. Following incubation as per the guideline, results were recorded as growth or no growth, and the lowest concentration of the antibiotic or the composition described where no growth was observed was declared the MIC.
# To assay for synergy of antibacterial combinations, a recognized synergy checkerboard assay, adapted from the CLSI guideline microdilution assay, was utilized (see Eliopoulos, G. M., and Moellering, R. C, Jr., 1996. Antimicrobial Combinations, pg. 330-396. In: Lorian, V. (Ed.), Antibiotics in Laboratory Medicine, 4th Ed., Williams & Wilkins; Baltimore, MD). In the case of the agar dilution method, each antibiotic alone, or in combination was added to agar prior to plate pouring. For broth microdilution, the first compound (or antibiotic or agent) was diluted in cation-adjusted Mueller-Hinton broth across the plate along the horizontal axis with each well in a row containing 50 μL of an identical concentration of compound (or antibiotic). Along the vertical axis a dilution series of the second compound (or antibiotic) was dispensed. At this point the drug concentrations are four-fold of the final desired working concentration. […] Following incubation, wells with no growth are noted. […] FIC=(MIC-A combination/MIC-A alone)+(MIC-B combination/MIC-B alone).
# In the above, FIC: Synergy=FIC<0.5; Additive=FIC>0.5-1; Indifferent=FIC>1-2; Antagonism=FIC>2-4.
smiles,measurement,setting,value
"C[C@@H]1O[C@@H]1P(=O)(O)O [Fosfomycin, cis-1,2-epoxypropyl phosphonic acid]",MIC (Combo as F/DP/SM; second compound as DP/SM),S. aureus 829025 (MRSA strains),4 µg/mL
same,MIC (Combo as F/DP/SM; second compound as DP/SM),S. aureus 829049 (MRSA strains),8 µg/mL
same,MIC (Combo as F/DP/SM; second compound as DP/SM),S. aureus 903887 (MRSA strains),8 µg/mL
same,MIC (Combo as F/DP/SM; second compound as DP/SM),S. aureus 920516 (MRSA strains),2 µg/mL
same,MIC (Combo as F/DP/SM; second compound as DP/SM),S. aureus 920962 (MRSA strains),2 µg/mL
same,MIC (Combo as F/DP/SM; second compound as DP/SM),S. aureus 927596 (MRSA strains),8 µg/mL
same,MIC (Combo as F/DP/SM; second compound as DP/SM),S. aureus 938125 (MRSA strains),4 µg/mL
same,MIC (Combo as F/DP/SM; second compound as DP/SM),S. aureus 953041 (MRSA strains),8 µg/mL
same,MIC (Combo as F/DP/SM; second compound as DP/SM),S. aureus 956270 (MRSA strains),28 µg/mL
same,MIC (Combo as F/DP/SM; second compound as DP/SM),S. aureus 956362 (MRSA strains),16 µg/mL
same,MIC (Combo as F/DP/SM; second compound as DP/SM),S. aureus 967287 (MRSA strains),8 µg/mL
same,MIC (Combo as F/DP/SM; second compound as DP/SM),S. aureus 974980 (MRSA strains),8 µg/mL
same,MIC (Combo as F/DP/SM; second compound as DP/SM),S. aureus 979234 (MRSA strains),16 µg/mL
same,MIC (Combo as F/DP/SM; second compound as DP/SM),S. aureus 1045190 (MRSA strains),2 µg/mL
same,MIC (Combo as F/DP/SM; second compound as DP/SM),Staphylococcus aureus (918019 - MRSA),32 µg/mL
same,MIC (Combo as F/DP/SM; second compound as DP/SM),Staphylococcus aureus (959797 - MRSA),16 µg/mL
same,MIC (Combo as F/DP/SM; second compound as DP/SM),Staphylococcus aureus (ATCC 29213 - MSSA),32 µg/mL
same,MIC (Combo as F/DP/SM; second compound as DP/SM),Staphylococcus aureus (ATCC 33591),64 µg/mL
same,MIC (Combo as F/DP/SM; second compound as DP/SM),Staphylococcus aureus (MGH-04),128* μg/ml
same,MIC (Combo as F/DP/SM; second compound as DP/SM),Staphylococcus aureus (USA-300 CDC- MRSA),64 µg/mL
